Source: patent publication US9096543B2, “Nuclear transport modulators and uses thereof” (Karyopharm Therapeutics Inc., priority 2012, dated 2015)
“Also recorded” adds a separate entry of the source.

How the values were obtained:
skin wounds = experiment: Longitudinal full thickness skin incision wound model in mice; format: in vivo, C57BL/6J mice; conditions: Day 5 post-wounding; oral 4 or 7.5 mg/kg every other day, or topical 1 or 2.5 μM daily
Text: The effects of Compound 1 on skin wound healing were studied in a mouse longitudinal full thickness skin incision wound model. Upon arrival, animals were identified by ear tags, weighed and left to acclimate for several days before initiation of the experiment. On the day of wounding, mice were weighed and divided into 6 experimental groups with 6 animals per group, in accordance to weight differences stratified randomization. Prior to the surgical procedure, mice were anesthetized with isoflurane and the back of the animals was trimmed. Full thickness longitudinal incisions of 20 mm were performed using a standard scalpel blade on the backs of the animals (parallel to the backbone). Three hours after wounding, due to skin elasticity and activity of the animals, the incisions took on elliptical shapes. At this stage, the widest area of the wound was measured to establish a baseline wound width. Wound healing evaluation was made by measuring the widest area of the wound. Treatment groups consisted of oral gavage or topical groups. During the experiment, wounds were photo-documented and morphological analysis was performed. At the end of the experiment, 8 days post wounding, mice were sacrificed, wound widths were measured and biopsies of the wound area were collected and subjected to analysis.
Dosing solutions were prepared fresh on each day of dosing. […]

CCI brain injury = experiment: Brain injury assessment after CCI (visual inspection, NeuN cell density, immunofluorescence); format: in vivo, rats; conditions: for cell-to-gray matter (CG) area coefficient, compared to sham: NeuN labeling
Procedure: Quantitative measures of cell density were collected from anti-NeuN immunolabeled subsections from approximately 2-3 mm anterior to bregma. Regions of interest (ROIs) were drawn (blind to experimental condition) around Layers IV-VI in the cortical region adjacent to the injury site in CCI-treated animals or in the equivalent zone (dorsal cortex) in sham animals. An ROI of similar area was also evaluated in a ventral cortical region of the same section. Cell identification was performed using the cell counting module of Keyence BZ-II Analyzer software. […] The CCI-induced reduction in CG coefficient was mitigated by treatment with Compound 1 in the ventral cortex (−3% compared to sham; p=0.09). Although the effect of Compound 1 versus vehicle treatment in the ventral cortex is not statistically significant, it is anticipated that this effect would breach statistical significance in a larger study. No effect of Compound 1 was detected in the dorsal cortical region (−32% compared to sham) immediately adjacent to the injury site. The difference in the observed effect of Compound 1 on the ventral region versus the dorsal region may be a threshold effect related to the degree of injury, which was inversely related to the distance from the injury site. Thus, the damage to the dorsal cortical region could be too severe to be rescued by Compound 1 under these conditions.
Immunofluorescence was performed to evaluate the impact of TBI on several pathways of immune response, and to determine if Compound 1 might be mediating its neuroprotective effects via one or more of those pathways. Semi-quantitative measures of secondary injury responses were examined using immunofluorescent labeling for anti-Rat IgG (an indicator of blood-brain barrier (BBB) permeability), and TNFα (an indicator of neural inflammation). All markers were imaged at 20× magnification in the areas of the cortex surrounding the injury site in adjacent subsections within 300 μm to those used for the NeuN labeling assessments. For each label, a target ROI was outlined within Layers IV-VI adjacent to the injury site (or an equivalent region of dorsal cortex for sham animals), and a reference ROI was collected from the same laminae in ventral cortex. Normalized fluorescence intensity was assessed in each of the two ROIs. For all labels, the ventral cortex reference site was determined not to be different between groups (p>0.5); therefore, the percent target to reference value (IF) was determined.

IMQ-induced psoriasis = experiment: Imiquimod (IMQ)-induced dermal inflammation/psoriasis model (Study 2); format: in vivo, BALB/c mice; conditions: Compound 2 2.5 mg/kg
Procedure: Forty (40) male BALB/c mice (Biological E Limited, Hyderabad (CPCSEA registration number: 36/99/CPCSEA)) were divided into four (4) groups consisting of ten (10) mice each. Animals were randomized based on their body weight. The groups were designated as Group-I (Nave), Group-II (IMQ; vehicle (PEG 400 and HPBCD)), Group-III (IMQ; Compound 2 (2.5 mg/kg)) and […] (IMQ; cyclophosphamide (10 mg/kg)).
A small area on the dorsum of each mouse was shaved, ensuring that these areas were of equal size/area. Psoriasis was induced in Groups II to IV by topical application of 50 mg of IMQ cream daily from Day 1 to Day 6 on the dorsum of the animals. On Day 1 and Day 2 of the study, four hours after topical application of IMQ, Compound 2 or positive control (cyclophosphamide) or vehicle were administered to animals in pertinent groups. Of note, animals in Group II and Group III were subjected to subcutaneous injections, whereas animals in Group IV received oral administration. The Compound 2, vehicle and cyclophosphamide treatment was terminated on Day 2. These groups of animals were maintained on daily IMQ treatments until Day 6. On Day 7, the psoriasis-induced animals were re-randomized into 3 groups consisting of 10 animals each based on Cumulative Disease Activity Index (CDAI). From Day 7 to Day 9, animals received vehicle or positive control or Compound 2. Of note, on these days animals were not treated with IMQ. From Day 10 to Day 14, the animals were treated alternatively with IMQ (Days 10, 12 and 14), or vehicle, positive control or Compound 2 (Days 11, 13).
All animals were observed daily for a period of […] for gross observations, body weight and feed and water intake. On Days 1 and 2, scorings of erythema, scaling, folding and thickening of skin were recorded 2 hours after administration of vehicle/positive control/test compounds, and on Days 3 to 14 scorings were recorded 4 hours after IMQ application, or administration of positive control, vehicle or Compound 2.
Vehicle was prepared by dissolving 40 mg of HPBCD in 70.0 mL of distilled water. Compound 2 was prepared by dissolving 3.59 mg in 0.5% PVP and 0.5% Pluronic. Cyclophosphamide was prepared by dissolving 500 mg of CMC in 100 mL distilled water.
The experimental results shown in Table 10 are expressed as mean±SEM. Data was assessed using one-way ANOVA, and post hoc analysis was performed using Dunnett's test.

Row | SMILES | wound morphology assessment (skin wounds) | qualitative visual inspection of whole brains (damage to dorsal-medial cortical tissue) (CCI brain injury; CCI + Compound 1 6 mg/kg) | cell-to-gray matter (CG) area coefficient, compared to sham (CCI brain injury; dorsal cortical region adjacent to injury site, CCI control −45%) [%] | secondary injury responses (TNFα immunopositive cells, anti-Rat IgG immunofluorescence) (CCI brain injury; tissue surrounding the injury site) | cell-to-gray matter (CG) area coefficient, compared to sham (CCI brain injury; ventral cortex, p=0.09 vs vehicle, CCI control −30%) [%] | body weight, food consumption and water intake (IMQ-induced psoriasis) | rate of reduction of disease activity index compared to vehicle (IMQ-induced psoriasis; 2.5 mg/kg)
1 | CC(C)(C)C(=O)NNC(=O)/C=C\n1cnc(-c2cc(C(F)(F)F)cc(C(F)(F)F)c2)n1 [Compound 1, (Z)-3-(3-(3,5-bis(trifluoromethyl)phenyl)-1H-1,2,4-triazol-1-yl)-N′-pivaloylacrylohydrazide] | positive effect; also recorded: displayed efficacy, and had a positive impact on wound healing; also recorded: better wound healing, as measured by wound size reduction and better scabbing properties | damage ranging from moderate to minimal | −32 | largely absent; also recorded: reduces secondary injury responses | −3 |  | 
2 | O=C(/C=C\n1cnc(-c2cc(C(F)(F)F)cc(C(F)(F)F)c2)n1)NNC(=O)CN1CCOCC1 [Compound 2, (Z)-3-(3-(3,5-bis(trifluoromethyl)phenyl)-1H-1,2,4-triazol-1-yl)-N′-(2-morpholinoacetyl)acrylohydrazide] |  |  |  |  |  | without greatly impacting the consumption of food or water | significantly greater than that observed in animals treated with vehicle; also recorded: diminished IMQ-induced disease manifestation
